Data from patent publication US9693556B2, “Herbicidal pyridazinone derivatives” (SYNGENTA LIMITED, priority 2011, dated 2017).

Assays:
Format in all cases: in vivo
[1] = system: Alopecurus myosuroides (ALOMY); experiment: Pre-emergence herbicidal glasshouse test on Alopecurus myosuroides; settings: pre-emergence; 1000 g/h; evaluated after 13 days
In short: (§1)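 Scored on a five-point scale (1 = 0-19% to 5 = 80-100% damage) 13 days after treatment. Application rate 1000 g/h in acetone/water (50:50) containing 0.5% Tween 20, sprayed one day post-sowing for pre-emergence or eight days for post-emergence; glasshouse at 24/16° C, 14 h light, 65% humidity.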

[2] = system: Setaria faberi (SETFA); experiment: Pre-emergence herbicidal glasshouse test on Setaria faberi; settings: pre-emergence; 1000 g/h; evaluated after 13 days
In short: as §1

[3] = system: Echinochloa crus-galli (ECHCG); experiment: Pre-emergence herbicidal glasshouse test on Echinochloa crus-galli; settings: pre-emergence; 1000 g/h; evaluated after 13 days
In short: as §1

[4] = system: Solanum nigrum (SOLNI); experiment: Pre-emergence herbicidal glasshouse test on Solanum nigrum; settings: pre-emergence; 1000 g/h; evaluated after 13 days
In short: as §1

[5] = system: Amaranthus retoflexus (AMARE); experiment: Pre-emergence herbicidal glasshouse test on Amaranthus retoflexus; settings: pre-emergence; 1000 g/h; evaluated after 13 days
In short: as §1

[6] = system: Ipomoea hederacea (IPOHE); experiment: Pre-emergence herbicidal glasshouse test on Ipomoea hederacea; settings: pre-emergence; 1000 g/h; evaluated after 13 days
In short: as §1

[7] = system: Alopecurus myosuroides (ALOMY); experiment: Post-emergence herbicidal glasshouse test on Alopecurus myosuroides; settings: post-emergence; 1000 g/h; evaluated after 13 days
In short: as §1

[8] = system: Setaria faberi (SETFA); experiment: Post-emergence herbicidal glasshouse test on Setaria faberi; settings: post-emergence; 1000 g/h; evaluated after 13 days
In short: as §1

[9] = system: Echinochloa crus-galli (ECHCG); experiment: Post-emergence herbicidal glasshouse test on Echinochloa crus-galli; settings: post-emergence; 1000 g/h; evaluated after 13 days
In short: as §1

[10] = system: Solanum nigrum (SOLNI); experiment: Post-emergence herbicidal glasshouse test on Solanum nigrum; settings: post-emergence; 1000 g/h; evaluated after 13 days
In short: as §1

[11] = system: Amaranthus retoflexus (AMARE); experiment: Post-emergence herbicidal glasshouse test on Amaranthus retoflexus; settings: post-emergence; 1000 g/h; evaluated after 13 days
In short: as §1

[12] = system: Ipomoea hederacea (IPOHE); experiment: Post-emergence herbicidal glasshouse test on Ipomoea hederacea; settings: post-emergence; 1000 g/h; evaluated after 13 days
In short: as §1

SMILES | PRE Application ALOMY herbicidal damage (five point scale) [1] | PRE Application SETFA herbicidal damage (five point scale) [2] | PRE Application ECHCG herbicidal damage (five point scale) [3] | PRE Application SOLNI herbicidal damage (five point scale) [4] | PRE Application AMARE herbicidal damage (five point scale) [5] | PRE Application IPOHE herbicidal damage (five point scale) [6] | POST Application ALOMY herbicidal damage (five point scale) [7] | POST Application SETFA herbicidal damage (five point scale) [8] | POST Application ECHCG herbicidal damage (five point scale) [9] | POST Application SOLNI herbicidal damage (five point scale) [10] | POST Application AMARE herbicidal damage (five point scale) [11] | POST Application IPOHE herbicidal damage (five point scale) [12]
Cc1ccc(-c2cnn(C)c(=O)c2O)c(Cl)c1 [Compound 1.098] | 1 (1=0-19% damage) | 1 (1=0-19% damage) | 1 (1=0-19% damage) | 1 (1=0-19% damage) | 1 (1=0-19% damage) | 1 (1=0-19% damage) | 1 (1=0-19% damage) | 1 (1=0-19% damage) | 1 (1=0-19% damage) | 3 (3=40-59% damage) | 2 (2=20-39% damage) | 2 (2=20-39% damage)
Cn1ncc(-c2cc(Cl)ccc2Cl)c(O)c1=O [Compound 1.099] | 1 (1=0-19% damage) | 1 (1=0-19% damage) | 1 (1=0-19% damage) | 1 (1=0-19% damage) | 1 (1=0-19% damage) | 1 (1=0-19% damage) | 1 (1=0-19% damage) | 1 (1=0-19% damage) | 1 (1=0-19% damage) | 2 (2=20-39% damage) | 3 (3=40-59% damage) | 2 (2=20-39% damage)
Cn1ncc(-c2cc(OC(F)(F)F)ccc2Cl)c(O)c1=O [Compound 1.100] | 1 (1=0-19% damage) | 1 (1=0-19% damage) | 1 (1=0-19% damage) | 1 (1=0-19% damage) | 1 (1=0-19% damage) | 1 (1=0-19% damage) | 1 (1=0-19% damage) | 1 (1=0-19% damage) | 1 (1=0-19% damage) | 2 (2=20-39% damage) | 2 (2=20-39% damage) | 2 (2=20-39% damage)
Cc1ccc(Cl)c(-c2cnn(C)c(=O)c2O)c1 [Compound 1.101] | 1 (1=0-19% damage) | 1 (1=0-19% damage) | 1 (1=0-19% damage) | 1 (1=0-19% damage) | 1 (1=0-19% damage) | 1 (1=0-19% damage) | 1 (1=0-19% damage) | 1 (1=0-19% damage) | 1 (1=0-19% damage) | 1 (1=0-19% damage) | 1 (1=0-19% damage) | 1 (1=0-19% damage)
COc1ccc(-c2cnn(C)c(=O)c2O)c(Cl)c1 [Compound 1.103] | 1 (1=0-19% damage) | 1 (1=0-19% damage) | 1 (1=0-19% damage) | 1 (1=0-19% damage) | 1 (1=0-19% damage) | 1 (1=0-19% damage) | 1 (1=0-19% damage) | 1 (1=0-19% damage) | 1 (1=0-19% damage) | 2 (2=20-39% damage) | 1 (1=0-19% damage) | 1 (1=0-19% damage)
Cn1ncc(-c2ccc(S(C)(=O)=O)cc2Cl)c(O)c1=O [Compound 1.105] | 2 (2=20-39% damage) | 2 (2=20-39% damage) | 5 (5=80-100% damage) | 4 (4=60-79% damage) | 5 (5=80-100% damage) | 1 (1=0-19% damage) | 2 (2=20-39% damage) | 1 (1=0-19% damage) | 5 (5=80-100% damage) | 5 (5=80-100% damage) | 5 (5=80-100% damage) | 5 (5=80-100% damage)
Cn1ncc(-c2c(Br)cccc2S(C)(=O)=O)c(O)c1=O [Compound 1.106] | 1 (1=0-19% damage) | 1 (1=0-19% damage) | 1 (1=0-19% damage) | 1 (1=0-19% damage) | 4 (4=60-79% damage) | 1 (1=0-19% damage) | 2 (2=20-39% damage) | 2 (2=20-39% damage) | 4 (4=60-79% damage) | 4 (4=60-79% damage) | 5 (5=80-100% damage) | 2 (2=20-39% damage)
Cn1ncc(-c2ccc(S(C)(=O)=O)c(O)c2Cl)c(O)c1=O [Compound 1.108] | 1 (1=0-19% damage) | 1 (1=0-19% damage) | 1 (1=0-19% damage) | 1 (1=0-19% damage) | 1 (1=0-19% damage) | 1 (1=0-19% damage) | 1 (1=0-19% damage) | 1 (1=0-19% damage) | 1 (1=0-19% damage) | 3 (3=40-59% damage) | 3 (3=40-59% damage) | 1 (1=0-19% damage)
Cn1ncc(-c2ccc(Cl)cc2[N+](=O)[O-])c(O)c1=O [Compound 1.109] | 1 (1=0-19% damage) | 1 (1=0-19% damage) | 1 (1=0-19% damage) | 2 (2=20-39% damage) | 5 (5=80-100% damage) | 1 (1=0-19% damage) | 1 (1=0-19% damage) | 1 (1=0-19% damage) | 2 (2=20-39% damage) | 4 (4=60-79% damage) | 5 (5=80-100% damage) | 4 (4=60-79% damage)
Cn1ncc(-c2ccc(C(F)(F)F)cc2[N+](=O)[O-])c(O)c1=O [Compound 1.110] | 1 (1=0-19% damage) | 1 (1=0-19% damage) | 1 (1=0-19% damage) | 1 (1=0-19% damage) | 5 (5=80-100% damage) | 1 (1=0-19% damage) | 1 (1=0-19% damage) | 1 (1=0-19% damage) | 3 (3=40-59% damage) | 5 (5=80-100% damage) | 5 (5=80-100% damage) | 5 (5=80-100% damage)
Cn1ncc(-c2ccc(F)cc2C(F)(F)F)c(O)c1=O [Compound 1.112] | 1 (1=0-19% damage) | 1 (1=0-19% damage) | 1 (1=0-19% damage) | 1 (1=0-19% damage) | 1 (1=0-19% damage) | 1 (1=0-19% damage) | 1 (1=0-19% damage) | 1 (1=0-19% damage) | 1 (1=0-19% damage) | 4 (4=60-79% damage) | 5 (5=80-100% damage) | 4 (4=60-79% damage)
